We go through six substances from patent US11952584B2, “Functional peptides having antimicrobial activity against phytopathogenic microorganisms” (TOYOTA JIDOSHA KABUSHIKI KAISHA, priority 2019, dated 2024).

Experiment [1] concerns Colletotrichum destructivum. The experiment can be described thus: Colletotrichum destructivum leaf inoculation test (Chinese cabbage leaf). The settings on record: 25° C., 4 days, lesions by visual inspection. It counts as in vivo. An excerpt: In the present example, a suspension comprising Colletotrichum destructivum and a peptide to be tested was dropped on a plant leaf, and lesions were then observed by visual inspection to evaluate the antimicrobial activity of the tested peptide. First, the pores of Colletotrichum destructivum were suspended in water to result in a spore concentration of 5×10^5 spores/ml, so as to prepare a water suspension of spores. Subsequently, peptides to be tested (TsORF18 (full length), TsORF18-40 a.a., and TsORF18-2) were each added to the water suspension of spores, so that the final concentration of the peptides to be tested became 0 μM, 1 μM, 10 μM or 100 μM. Thereafter, 10 μl each of the water suspension of spores containing the peptide to be tested was dropped on the front side and the back side of the leaf of Chinese cabbage (variety name: “Kigokoro 85”). In this condition, incubation was carried out at 25° C. for 4 days. Thereafter, the front and back sides of the leaf were observed by visual inspection.

For experiment [2], the system named is Botrytis cinerea. It counts as cell-based. The settings on record: 25° C., 1 day or 2 days.
The test system of experiment [3] is Colletotrichum destructivum. It counts as cell-based. The settings on record: 25° C., 1 day or 2 days.
Another experiment has as its system Fusarium oxysporum. It counts as cell-based.
In a further experiment the test system is Pyricularia oryzae. In kind it is cell-based. The conditions noted are these: 25° C., 1 day or 2 days.
Experiment [4] concerns Colletotrichum orbiculare. It counts as cell-based. The conditions noted are these: 25° C., 1 day or 2 days.
Experiment [5] has as its system plant pathogenic filamentous fungi. In kind it is cell-based. The settings on record: summary of Table 3.
The test system of experiment [6] is Botrytis cinerea. Kind of experiment: Botrytis cinerea leaf inoculation test (tomato leaf). It counts as in vivo. The settings on record: peptide 100 μM; tomato leaf, 25° C., 2 days, lesions by visual inspection. How it is done:
In the present example, a suspension comprising Botrytis cinerea and a peptide to be tested was dropped on a plant leaf, and lesions were then observed by visual inspection to evaluate the antimicrobial activity of the tested peptide. First, the pores of Botrytis cinerea were suspended in a potato dextrose broth (PDB) to result in a spore concentration of 5×10^5 spores/ml, so as to prepare a PDB suspension spore solution. Subsequently, a peptide to be tested (TsORF18-2) was added to the PDB suspension spore solution, so that the final concentration of the peptide to be tested became 0 μM, 1 μM, 10 μM or 100 μM. It is to be noted that, as peptides to be tested, TsORF18 (full length) and TsORF18-40 a.a. were also used in the same manner as that of TsORF18-2. TsORF18 (full length) was dissolved in DMSO and was then used. On the other hand, TsORF18-2 and TsORF18-40 a.a were each dissolved in Milli-Q water and were then used. Thereafter, 10 μl each of the PDB suspension spore solution containing the peptide to be tested was dropped on the front side and the back side of the leaf of tomato (variety name: “Ponte Rosa”). In this condition, incubation was carried out at 25° C. for 2 days. Thereafter, the front and back sides of the leaf were observed by visual inspection.

Where “and” joins values, the source holds several entries; their conditions need not be identical. Identical values can stand only once. Like-named read-outs stand apart in the source and are kept apart here.

For the substance “TRKFWRIW (listed as Solanum lycopersicum) [TsORF18-2-8aa-11]”, the “Leaf inoculation test Chinese cabbage/Colletotrichum destructivum” value in experiment [1] (peptide 10 μM) and in experiment [1] (peptide 100 μM) was “∘” throughout. In addition, the “Plate antimicrobial activity test Botrytis cinerea (level)” value with Botrytis cinerea [2] (peptide 1 μM) was 0; in the experiment on Botrytis cinerea [2] (peptide 10 μM), 0; in the experiment on Botrytis cinerea [2] (peptide 100 μM) it was 3. For the same substance, the “Plate antimicrobial activity test Colletotrichum destructivum (level)” value in experiment [3] (peptide 1 μM) is listed as 0; in experiment [3] (peptide 10 μM), 0; in experiment [3] (peptide 100 μM) it was 3. The “Plate antimicrobial activity test Fusarium oxysporum (level)” value in the experiment on Fusarium oxysporum is 3 and 0. Besides, the “Plate antimicrobial activity test Pyricularia oryzae (level)” value with Pyricularia oryzae (peptide 1 μM), in the experiment on Pyricularia oryzae (peptide 10 μM) and in the experiment with Pyricularia oryzae (peptide 100 μM) was 0 in each case. For the same substance, the “Plate antimicrobial activity test Collectotrichum orbiculare (level)” value in experiment [4] (peptide 1 μM) is 0; in experiment [4] (peptide 10 μM), 0; in experiment [4] (peptide 100 μM) it was 3. Further, the “germination inhibitory activity against plant pathogenic filamentous fungi (in words)” value (shortened to “germination inhibitory activity”) in experiment [5] is “extremely excellent germination inhibitory activity”. Further, the “Leaf inoculation test Tomato/Botrytis cinerea” value in the experiment on Botrytis cinerea [6] is “∘”.

Consider “RTRKFWRI (listed as Solanum lycopersicum) [TsORF18-2-8aa-10]”, for which the “Leaf inoculation test Chinese cabbage/Colletotrichum destructivum” value in experiment [1] (peptide 10 μM) and in experiment [1] (peptide 100 μM) was “∘” each time. For the same substance, the “Plate antimicrobial activity test Botrytis cinerea (level)” value with Botrytis cinerea [2] (peptide 1 μM) came out at 0; in the experiment on Botrytis cinerea [2] (peptide 10 μM), 0; with Botrytis cinerea [2] (peptide 100 μM), 3. The “Plate antimicrobial activity test Colletotrichum destructivum (level)” value in experiment [3] (peptide 1 μM) is 0; in experiment [3] (peptide 10 μM), 0; in experiment [3] (peptide 100 μM), 3. For the same substance, the “Plate antimicrobial activity test Fusarium oxysporum (level)” value with Fusarium oxysporum is 3 and 1 and 0. For the same substance, the entries for the “Plate antimicrobial activity test Pyricularia oryzae (level)” value in the experiment on Pyricularia oryzae (peptide 1 μM), with Pyricularia oryzae (peptide 10 μM) and in the experiment with Pyricularia oryzae (peptide 100 μM) were 0, 0 and 1, respectively. The “Plate antimicrobial activity test Collectotrichum orbiculare (level)” value in experiment [4] (peptide 1 μM) came to 0; in experiment [4] (peptide 10 μM), 0; in experiment [4] (peptide 100 μM) it was 3. Besides, the “germination inhibitory activity” value in experiment [5] is given as “extremely excellent germination inhibitory activity”.

Turning to “RKFWRIWK (listed as Solanum lycopersicum) [TsORF18-2-8aa-12]”, the “Leaf inoculation test Chinese cabbage/Colletotrichum destructivum” value in experiment [1] (peptide 1 μM) is given as “Δ”; in experiment [1] (peptide 10 μM), “∘”; in experiment [1] (peptide 100 μM), “∘”. Besides, the “Plate antimicrobial activity test Botrytis cinerea (level)” value in the experiment with Botrytis cinerea [2] (peptide 1 μM) is given as 0; in the experiment on Botrytis cinerea [2] (peptide 10 μM), 1; with Botrytis cinerea [2] (peptide 100 μM), 3. Moreover, the “Plate antimicrobial activity test Colletotrichum destructivum (level)” value is recorded as 0 in experiment [3] (peptide 1 μM), 0 in experiment [3] (peptide 10 μM) and 3 in experiment [3] (peptide 100 μM). Moreover, the “Plate antimicrobial activity test Fusarium oxysporum (level)” value in the experiment with Fusarium oxysporum was 3 and 2 and 0. Moreover, the “Plate antimicrobial activity test Pyricularia oryzae (level)” value with Pyricularia oryzae (peptide 1 μM), with Pyricularia oryzae (peptide 10 μM) and with Pyricularia oryzae (peptide 100 μM) was 0 in each case. The entries for the “Plate antimicrobial activity test Collectotrichum orbiculare (level)” value in experiment [4] (peptide 1 μM), in experiment [4] (peptide 10 μM) and in experiment [4] (peptide 100 μM) were 0, 0 and 3, respectively. For the same substance, the “germination inhibitory activity” value in experiment [5] is “extremely excellent germination inhibitory activity”. The “Leaf inoculation test Tomato/Botrytis cinerea” value with Botrytis cinerea [6] is recorded as “∘”.

On to “RKFWR (listed as Solanum lycopersicum) [TsORF18-2-5aa-12]”, for which the “Leaf inoculation test Chinese cabbage/Colletotrichum destructivum” value in experiment [1] (peptide 10 μM) and in experiment [1] (peptide 100 μM) was “∘” in each case. The results for the “Plate antimicrobial activity test Botrytis cinerea (level)” value in the experiment on Botrytis cinerea [2] (peptide 1 μM), with Botrytis cinerea [2] (peptide 10 μM) and in the experiment with Botrytis cinerea [2] (peptide 100 μM) were 0, 0 and 3, respectively. The entries for the “Plate antimicrobial activity test Colletotrichum destructivum (level)” value in experiment [3] (peptide 1 μM), in experiment [3] (peptide 10 μM) and in experiment [3] (peptide 100 μM) were 0, 0 and 3, respectively. In addition, in the experiment with Fusarium oxysporum, the “Plate antimicrobial activity test Fusarium oxysporum (level)” value is 3 and 0. In addition, the “Plate antimicrobial activity test Pyricularia oryzae (level)” value in the experiment on Pyricularia oryzae (peptide 1 μM), with Pyricularia oryzae (peptide 10 μM) and with Pyricularia oryzae (peptide 100 μM) was 0 in each case. Also, the “Plate antimicrobial activity test Collectotrichum orbiculare (level)” value in experiment [4] (peptide 1 μM) amounted to 0; in experiment [4] (peptide 10 μM), 0; in experiment [4] (peptide 100 μM), 2. In experiment [5], the “germination inhibitory activity” value is “extremely excellent germination inhibitory activity”.

“KFWRIWKG (listed as Solanum lycopersicum) [TsORF18-2-8aa-13]”: the “Leaf inoculation test Chinese cabbage/Colletotrichum destructivum” value in experiment [1] (peptide 10 μM) and in experiment [1] (peptide 100 μM) was “∘” each time. In addition, the results for the “Plate antimicrobial activity test Botrytis cinerea (level)” value with Botrytis cinerea [2] (peptide 1 μM), in the experiment with Botrytis cinerea [2] (peptide 10 μM) and with Botrytis cinerea [2] (peptide 100 μM) were 0, 0 and 3, respectively. Moreover, the “Plate antimicrobial activity test Colletotrichum destructivum (level)” value in experiment [3] (peptide 1 μM) was found to be 0; in experiment [3] (peptide 10 μM) it was 0; in experiment [3] (peptide 100 μM), 3. For the same substance, the “Plate antimicrobial activity test Fusarium oxysporum (level)” value in the experiment on Fusarium oxysporum is 3 and 2 and 0. The “Plate antimicrobial activity test Pyricularia oryzae (level)” value in the experiment on Pyricularia oryzae (peptide 1 μM), in the experiment with Pyricularia oryzae (peptide 10 μM) and in the experiment with Pyricularia oryzae (peptide 100 μM) was 0 in each case. Moreover, the “Plate antimicrobial activity test Collectotrichum orbiculare (level)” value in experiment [4] (peptide 1 μM) was 0; in experiment [4] (peptide 10 μM) it was 0; in experiment [4] (peptide 100 μM), 3. For the same substance, the “germination inhibitory activity” value in experiment [5] is on record as “extremely excellent germination inhibitory activity”. The “Leaf inoculation test Tomato/Botrytis cinerea” value with Botrytis cinerea [6] was “∘”.

With “KFWRI (listed as Solanum lycopersicum) [TsORF18-2-5aa-13]”, the “Leaf inoculation test Chinese cabbage/Colletotrichum destructivum” value in experiment [1] (peptide 10 μM) and in experiment [1] (peptide 100 μM) was “∘” in each case. For the same substance, the “Plate antimicrobial activity test Botrytis cinerea (level)” value in the experiment on Botrytis cinerea [2] (peptide 1 μM) is 0; with Botrytis cinerea [2] (peptide 10 μM) it was 0; in the experiment on Botrytis cinerea [2] (peptide 100 μM), 3. The “Plate antimicrobial activity test Colletotrichum destructivum (level)” value is recorded as 0 in experiment [3] (peptide 1 μM), 0 in experiment [3] (peptide 10 μM) and 3 in experiment [3] (peptide 100 μM). The “Plate antimicrobial activity test Fusarium oxysporum (level)” value in the experiment with Fusarium oxysporum was 3 and 0. For the same substance, the “Plate antimicrobial activity test Pyricularia oryzae (level)” value with Pyricularia oryzae (peptide 1 μM) was 0; with Pyricularia oryzae (peptide 10 μM), 0; in the experiment on Pyricularia oryzae (peptide 100 μM) it was 1. Besides, the “Plate antimicrobial activity test Collectotrichum orbiculare (level)” value in experiment [4] (peptide 1 μM) stood at 0; in experiment [4] (peptide 10 μM) it was 0; in experiment [4] (peptide 100 μM) it was 3. Besides, the “germination inhibitory activity” value in experiment [5] is reported as “extremely excellent germination inhibitory activity”.
